We go through 37 compounds from patent US20050197350A1, “Novel quinoline, tetrahydroquinazoline, and pyrimidine derivatives and methods of treatment related to the use thereof” (TAISHO PHARMACEUTICAL CO., LTD., priority 2003, published 2005).

One assay has as its system MCH receptors. Put plainly: MCH receptor activity class (method not given).
Details: not given
`Cc1cccc(C(=O)N[C@H]2CC[C@@H](Nc3cc(C)c4ccccc4n3)CC2)c1` [Example 2543, 3-methyl-N-{cis-4-[(4-methylquinolin-2-yl)amino]cyclohexyl}benzamide]: the class is on record as 1. For `Cc1cc(N[C@H]2CC[C@@H](NC(=O)c3cccc(C#N)c3)CC2)nc2ccccc12` [Example 2550, 3-cyano-N-{cis-4-[(4-methylquinolin-2-yl)amino]cyclohexyl}benzamide], the class worked out at 1.

Staying with this assay, now noted: MCH receptor activity class 1-3 (percent of control at 10^-7 M or IC50).
In the case of `CSc1ccc(NC(=O)NC[C@H]2CC[C@@H](Nc3cc(N(C)C)c4ccccc4n3)CC2)cc1` [compound 2365], the class was 3 (Class 3 The value of percent of control at 10^−7 M was more than 60% or the value of IC50 was more than 200 nM.).

The same assay, now with this note: MCH receptor; class by percent of control at 10^-7 M or IC50.
On to `CN(C)c1cc(N[C@H]2CC[C@@H](NC(=O)c3cc(F)c(Cl)cc3Cl)CC2)nc2ccccc12` [compound 39], for which the class is listed as 3 (Class 3 The value of percent of control at 10^−7 M was more than 60% or the value of IC50 was more than 200 nM.). Turning to `CN(C)c1cc(N[C@H]2CC[C@@H](NC(=O)c3ccc(F)cc3)CC2)nc2ccccc12` [compound 37, N-(cis-4-{[4-(dimethylamino)quinolin-2-yl]amino}cyclohexyl)-4-fluorobenzamide], the class is listed as 1 (Class 1: The value of percent of control at 10^−7 M was less than 40% or the value of IC50 was less than 50 nM.).

Still in this assay, the particulars now being: activity class 1-3: percent of control at 10^-7 M or IC50.
Consider `CN(C)c1cc(N[C@H]2CC[C@@H](CNC(=O)OCCOCc3ccccc3)CC2)nc2ccccc12` [compound 1559], for which the class was 3 (Class 3 The value of percent of control at 10^−7 M was more than 60% or the value of IC50 was more than 200 nM.). Turning to `Cc1ccc(OC(=O)N[C@H]2CC[C@@H](Nc3nc4c(c(N(C)C)n3)CCCC4)CC2)cc1` [compound 1594], the class was 3 (Class 3 The value of percent of control at 10^−7 M was more than 60% or the value of IC50 was more than 200 nM.). Turning to `CN(C)c1ccnc(N[C@H]2CC[C@@H](CNCc3cc(Cl)ccc3Cl)CC2)n1` [compound 1534], the class is on record as 3 (Class 3 The value of percent of control at 10^−7 M was more than 60% or the value of IC50 was more than 200 nM.).

The same assay, now with this note: activity class per percent of control at 10^-7 M or IC50.
In the case of `CN(C)c1nc(N[C@H]2CC[C@@H](NC(=O)c3ccccc3-c3ccccc3)CC2)nc2c1CCCC2` [compound 1031], the class is given as 3 (Class 3 The value of percent of control at 10^−7 M was more than 60% or the value of IC50 was more than 200 nM.). Take `CN(C)c1nc(N[C@H]2CC[C@@H](CNC(=O)CC3=CCCCC3)CC2)nc2c1CCCC2` [compound 1079]: the class was 3 (Class 3 The value of percent of control at 10^−7 M was more than 60% or the value of IC50 was more than 200 nM.). As for `COc1cc(CNC[C@H]2CC[C@@H](Nc3cc(N(C)C)c4ccccc4n3)CC2)cc(OC)c1` [compound 1138], the class is 3 (Class 3 The value of percent of control at 10^−7 M was more than 60% or the value of IC50 was more than 200 nM.).

The same assay, now with this note: class 1-3 by percent of control at 10^-7 M or IC50.
In the case of `CN(C)c1nc(N[C@H]2CC[C@@H](NC(=O)C3(c4ccc(Cl)cc4)CCCC3)CC2)nc2c1CCCC2` [compound 535], the class is 2 (Class 2: The value of percent of control at 10^−7 M was from 40% to 60% or the value of IC′50 was from 50 nM to 200 nM.).

Regarding `COc1ccc(C(=O)N[C@H]2CC[C@@H](Nc3nc4c(c(N(C)C)n3)CCCC4)CC2)cc1OC` [compound 540], the class is listed as 3 (Class 3 The value of percent of control at 10^−7 M was more than 60% or the value of IC50 was more than 200 nM.).

The same assay, now with this note: class by percent of control at 10^-7 M or IC50.
As to `CN(C)c1nc(N[C@H]2CC[C@@H](NC(=O)Nc3cccc(C(F)(F)F)c3)CC2)nc2c1CCCC2` [compound 1838], the class is given as 3 (Class 3 The value of percent of control at 10^−7 M was more than 60% or the value of IC50 was more than 200 nM.).

On to `CCc1cccc(C(C)C)c1NC(=S)N[C@H]1CC[C@@H](Nc2cc(N(C)C)c3ccccc3n2)CC1` [compound 2172], for which the class is recorded as 3 (Class 3 The value of percent of control at 10^−7 M was more than 60% or the value of IC50 was more than 200 nM.).

For `COc1ccc(CC(=O)N[C@H]2CC[C@@H](Nc3nccc(N(C)C)n3)CC2)cc1` [compound 287], the class is reported as 3 (Class 3 The value of percent of control at 10^−7 M was more than 60% or the value of IC50 was more than 200 nM.). Same read-out and setting: to `Cc1c(Cl)cccc1NC(=S)N[C@H]1CC[C@@H](Nc2nc3c(c(N(C)C)n2)CCCC3)CC1` [compound 1786] belongs 3 (Class 3 The value of percent of control at 10^−7 M was more than 60% or the value of IC50 was more than 200 nM.); to `CN(C)c1cc(N[C@H]2CC[C@@H](CNCCc3ccc(Br)cc3)CC2)nc2ccccc12` [compound 1463], 3 (Class 3 The value of percent of control at 10^−7 M was more than 60% or the value of IC50 was more than 200 nM.). On the same count and under the same terms, the value for `CN(C)c1ccnc(N[C@H]2CC[C@@H](NC(=O)Nc3cccc4ccccc34)CC2)n1` [compound 2220] was 3 (Class 3 The value of percent of control at 10^−7 M was more than 60% or the value of IC50 was more than 200 nM.). On to `CN(C)c1nc(N[C@H]2CC[C@@H](CNC(=O)c3cc(F)ccc3Cl)CC2)nc2c1CCCC2` [compound 660], for which the class is given as 3 (Class 3 The value of percent of control at 10^−7 M was more than 60% or the value of IC50 was more than 200 nM.). As to `CN(C)c1nc(N[C@H]2CC[C@@H](CNC(=O)c3ccc(F)cc3Cl)CC2)nc2c1CCCC2` [compound 623], the class is 3 (Class 3 The value of percent of control at 10^−7 M was more than 60% or the value of IC50 was more than 200 nM.). For the compound `CN(C)c1ccnc(N[C@H]2CC[C@@H](NC(=O)c3ccc(F)cc3F)CC2)n1` [compound 344], the class is on record as 3 (Class 3 The value of percent of control at 10^−7 M was more than 60% or the value of IC50 was more than 200 nM.). `COc1cc(OC)c(CNC[C@H]2CC[C@@H](Nc3cc(N(C)C)c4ccccc4n3)CC2)c(OC)c1` [compound 1161]: the class is recorded as 2 (Class 2: The value of percent of control at 10^−7 M was from 40% to 60% or the value of IC′50 was from 50 nM to 200 nM.). For `CN(C)c1ccnc(N[C@H]2CC[C@@H](NC(=O)Nc3ccc(Oc4ccccc4)cc3)CC2)n1` [compound 2222], the class was 3 (Class 3 The value of percent of control at 10^−7 M was more than 60% or the value of IC50 was more than 200 nM.). With `CN(C)c1nc(N[C@H]2CC[C@@H](NC[C@@H](COCc3ccccc3)OCc3ccccc3)CC2)nc2c1CCCC2` [compound 1487], the class is reported as 3 (Class 3 The value of percent of control at 10^−7 M was more than 60% or the value of IC50 was more than 200 nM.). With `CN(C)c1cc(N[C@H]2CC[C@@H](CNC(=O)c3csc4ccccc34)CC2)nc2ccccc12` [compound 218], the class is 3 (Class 3 The value of percent of control at 10^−7 M was more than 60% or the value of IC50 was more than 200 nM.). As to `CCCCc1ccc(NC(=O)N[C@H]2CC[C@@H](Nc3nc4c(c(N(C)C)n3)CCCC4)CC2)c(C)c1` [compound 1735], the class is 3 (Class 3 The value of percent of control at 10^−7 M was more than 60% or the value of IC50 was more than 200 nM.). Consider `CN(C)c1ccnc(N[C@H]2CC[C@@H](NC(=O)c3ccc(SC(F)(F)F)cc3)CC2)n1` [compound 349], for which the class is on record as 3 (Class 3 The value of percent of control at 10^−7 M was more than 60% or the value of IC50 was more than 200 nM.). Take `CN(C)c1cc(N[C@H]2CC[C@@H](NC(=O)c3cnc4ccccc4c3)CC2)nc2ccccc12` [compound 776]: the class is reported as 3 (Class 3 The value of percent of control at 10^−7 M was more than 60% or the value of IC50 was more than 200 nM.). Turning to `Cc1cc(F)ccc1NC(=S)N[C@H]1CC[C@@H](Nc2nc3c(c(N(C)C)n2)CCCC3)CC1` [compound 1775], the class is given as 2 (Class 2: The value of percent of control at 10^−7 M was from 40% to 60% or the value of IC′50 was from 50 nM to 200 nM.).

Staying with this assay, now noted: class by percent of control at 10^−7 M or IC50.
`Cc1cnc(N[C@H]2CC[C@@H](CNC(=O)c3ccc(Cl)c(Cl)c3)CC2)nc1N(C)C` [compound 2707, 3,4-dichloro-N-[(cis-4-{[4-(dimethylamino)-5-methylpyrimidin-2-yl]amino}cyclohexyl)methyl]benzamide]: the class is 1 (Class 1: The value of percent of control at 10^−7 M was less than 40% or the value of IC50 was less than 50 nM.).

Turning to `Cc1cnc(NC[C@H]2CC[C@@H](NC(=O)c3ccc(F)c(Cl)c3)CC2)nc1N(C)C` [compound 2726], the class is recorded as 2 (Class 2: The value of percent of control at 10^−7 M was from 40% to 60% or the value of IC′50 was from 50 nM to 200 nM.). As to `Cc1cc(N(C)C)nc(N[C@H]2CC[C@@H](NC(=O)c3ccc(Br)c(C)c3)CC2)n1` [compound 2969, 4-bromo-N-(cis-4-{[4-(dimethylamino)-6-methylpyrimidin-2-yl]amino}cyclohexyl)-3-methylbenzamide], the class is listed as 1 (Class 1: The value of percent of control at 10^−7 M was less than 40% or the value of IC50 was less than 50 nM.).

For the compound `Cc1cc(N(C)C)nc(N[C@H]2CC[C@@H](NC(=O)c3ccc(F)c(C(F)(F)F)c3)CC2)n1` [compound 2961], the class was 1 (Class 1: The value of percent of control at 10^−7 M was less than 40% or the value of IC50 was less than 50 nM.). `Cc1cnc(N[C@H]2CC[C@@H](C(=O)N[C@H](C)c3cccc4ccccc34)CC2)nc1N(C)C` [compound 2782, cis-4-{[4-(dimethylamino)-5-methylpyrimidin-2-yl]amino}-N-[(1R)-1-(1-naphthyl)ethyl]cyclohexanecarboxamide]: the class is on record as 1 (Class 1: The value of percent of control at 10^−7 M was less than 40% or the value of IC50 was less than 50 nM.). In the case of `CCOc1cc(OCC)cc(C(=O)N[C@H]2CC[C@@H](Nc3nc(C)cc(N(C)C)n3)CC2)c1` [compound 2975, N-(cis-4-{[4-(dimethylamino)-6-methylpyrimidin-2-yl]amino}cyclohexyl)-3,5-diethoxybenzamide], the class is 1 (Class 1: The value of percent of control at 10^−7 M was less than 40% or the value of IC50 was less than 50 nM.). For the compound `CSc1ccccc1NC(=O)[C@H]1CC[C@@H](Nc2ncc(C)c(N(C)C)n2)CC1` [compound 2792], the class is given as 2 (Class 2: The value of percent of control at 10^−7 M was from 40% to 60% or the value of IC′50 was from 50 nM to 200 nM.).
